Assays:
[1] = test system: HT-168 human melanoma tumor; assay: HT-168 human melanoma model: body, total and tumor weight; type: in vivo, mice; details: for Body weight: total minus tumor weight
Excerpt: Tumors were developed in a homozygous line of C.B.-171 cr scid/scid adult female mice kept at specified pathogen free (SPF) hygienic levels. Suspensions of HL-60 human leukemia cells (about 1,500,000 cells), or approximately 0.1 cm^3 volume of tumor tissue derived from HT-168 human melanoma, PC-3 human prostate adenocarcinoma, or T47D human breast carcinoma were implanted subcutaneously to develop the tumors. After 12-18 days when the tumor-bearing mice were first treated, the size of the tumors was in the 0.2-0.4 cm^3 range. CCcompound1 was dissolved in physiological (0.9%) saline (NaCl) and applied subcutaneously in 50 μl volume. Tumor volume was determined by calipers in three dimensions; this technique is well known to one having ordinary skill in the art. Tumor volume was calculated according to the generally accepted formula: V=a^2×b×π/6, where “a” and “b” mean the shortest and longest diameter, respectively, of the measured tumor. Tumor weight was calculated from tumor volume using a 0.7 (tumor weight) : 1 (tumor volume) ratio. Total weight and tumor volume/weight was measured regularly (at least every second day). In all tumor experiments, each treatment group consisted of five animals. Accordingly, all data are the average of five independent determinations (one determination for each animal). HT-168 human tumors were developed in mice as described above. Treatments with CCcompound1 were started on day 17 after tumor implantation and conducted for the first five days and then for another five days with two treatment-free days inserted between the two series of treatments. The results, shown in TABLE 3, indicate that between day 17 and 30 after tumor implantation, the melanoma tumor caused a 2.7-g loss in body weight.

[2] = test system: PC-3 human prostate tumor; assay: PC-3 human prostate cancer model: body, total and tumor weight; type: in vivo, mice; details: for Body weight: total minus tumor weight
Excerpt: Tumors were developed in a homozygous line of C.B.-171 cr scid/scid adult female mice kept at specified pathogen free (SPF) hygienic levels. Suspensions of HL-60 human leukemia cells (about 1,500,000 cells), or approximately 0.1 cm^3 volume of tumor tissue derived from HT-168 human melanoma, PC-3 human prostate adenocarcinoma, or T47D human breast carcinoma were implanted subcutaneously to develop the tumors. After 12-18 days when the tumor-bearing mice were first treated, the size of the tumors was in the 0.2-0.4 cm^3 range. CCcompound1 was dissolved in physiological (0.9%) saline (NaCl) and applied subcutaneously in 50 μl volume. Tumor volume was determined by calipers in three dimensions; this technique is well known to one having ordinary skill in the art. Tumor volume was calculated according to the generally accepted formula: V=a^2×b×π/6, where “a” and “b” mean the shortest and longest diameter, respectively, of the measured tumor. Tumor weight was calculated from tumor volume using a 0.7 (tumor weight) : 1 (tumor volume) ratio. Total weight and tumor volume/weight was measured regularly (at least every second day). In all tumor experiments, each treatment group consisted of five animals. Accordingly, all data are the average of five independent determinations (one determination for each animal). PC-3 human tumors were developed in mice as described above. Treatments with CCcompound1 were started on day 12 after tumor implantation and conducted for five days and then for another three days with two treatment-free days inserted between the two series of treatments. The results, shown in TABLE 4, indicate that between day 12 and 21 after tumor implantation, the prostate tumor caused about 5.7-g loss in body weight which corresponds to about 22% reduction.

[3] = Water solubility; type: physicochemical; details: at the concentration used in vivo
[4] = test system: T47D human breast tumor; assay: T47D human estrogen receptor positive breast cancer model: body, total and tumor weight; type: in vivo, mice; details: for Body weight: total minus tumor weight
Excerpt: Tumors were developed in a homozygous line of C.B.-171 cr scid/scid adult female mice kept at specified pathogen free (SPF) hygienic levels. Suspensions of HL-60 human leukemia cells (about 1,500,000 cells), or approximately 0.1 cm^3 volume of tumor tissue derived from HT-168 human melanoma, PC-3 human prostate adenocarcinoma, or T47D human breast carcinoma were implanted subcutaneously to develop the tumors. After 12-18 days when the tumor-bearing mice were first treated, the size of the tumors was in the 0.2-0.4 cm^3 range. CCcompound1 was dissolved in physiological (0.9%) saline (NaCl) and applied subcutaneously in 50 μl volume. Tumor volume was determined by calipers in three dimensions; this technique is well known to one having ordinary skill in the art. Tumor volume was calculated according to the generally accepted formula: V=a^2×b×π/6, where “a” and “b” mean the shortest and longest diameter, respectively, of the measured tumor. Tumor weight was calculated from tumor volume using a 0.7 (tumor weight) : 1 (tumor volume) ratio. Total weight and tumor volume/weight was measured regularly (at least every second day). In all tumor experiments, each treatment group consisted of five animals. Accordingly, all data are the average of five independent determinations (one determination for each animal). T47D human tumors were developed in mice as described above. Treatments with CCcompound1 were started on day 17 after tumor implantation and conducted for five days and then followed by an additional five days with 2 treatment-free days inserted between the 2 series of treatments. The results, shown in TABLE 5, indicate that between day 17 and 28 after tumor implantation, this breast tumor caused about a 2.5-g loss in body weight. […] Thus, in this human breast tumor model, CCcompound1 is a potent anti-cachectic agent and its effects on body weight are accompanied by significant anti-tumor effects.

[5] = test system: HL60 human leukemia tumor; assay: HL60 human leukemia tumor model: body, total and tumor weight; type: in vivo, mice; details: for Body weight: total minus tumor weight
Excerpt: Tumors were developed in a homozygous line of C.B.-171 cr scid/scid adult female mice kept at specified pathogen free (SPF) hygienic levels. Suspensions of HL-60 human leukemia cells (about 1,500,000 cells), or approximately 0.1 cm^3 volume of tumor tissue derived from HT-168 human melanoma, PC-3 human prostate adenocarcinoma, or T47D human breast carcinoma were implanted subcutaneously to develop the tumors. After 12-18 days when the tumor-bearing mice were first treated, the size of the tumors was in the 0.2-0.4 cm^3 range. CCcompound1 was dissolved in physiological (0.9%) saline (NaCl) and applied subcutaneously in 50 μl volume. Tumor volume was determined by calipers in three dimensions; this technique is well known to one having ordinary skill in the art. Tumor volume was calculated according to the generally accepted formula: V=a^2×b×π/6, where “a” and “b” mean the shortest and longest diameter, respectively, of the measured tumor. Tumor weight was calculated from tumor volume using a 0.7 (tumor weight) : 1 (tumor volume) ratio. Total weight and tumor volume/weight was measured regularly (at least every second day). In all tumor experiments, each treatment group consisted of five animals. Accordingly, all data are the average of five independent determinations (one determination for each animal). HL60 human tumors were developed in mice as described above. Treatments with CCcompound1 were started on day 18 after tumor implantation and conducted for the first five days and then for three days with two treatment-free days inserted between the two series of treatments. The results, shown in TABLE 2, indicate that between day 18 and 27 after tumor implantation, the leukemia tumor caused about 4-g loss in body weight.

[6] = 1.0 mg/kg s.c., day 17 (treatment start)
[7] = 1.0 mg/kg s.c., day 17 after tumor transplantation (treatment start)
[8] = 2.0 mg/kg s.c., day 17 (treatment start)
[9] = 4.0 mg/kg s.c., day 17 (treatment start)
[10] = 1.0 mg/kg s.c., day 12 (treatment start)
[11] = 2.0 mg/kg s.c., day 12 (treatment start)
[12] = 4.0 mg/kg s.c., day 12 (treatment start)
[13] = 0.5 mg/kg s.c., day 18 (treatment start)
[14] = 1.0 mg/kg s.c., day 18 (treatment start)
[15] = 2.0 mg/kg s.c., day 18 (treatment start)

Water solubility [3]: fully water-soluble
Compound: Cc1c(OCC(O)C[N+](C)(C)C)cc2c(=O)c3ccccc3sc2c1C.[Cl-] (centres unmarked) [CCcompound1, [3-(3,4-Dimethyl-9-oxo-9H-thioxanthen-2-yloxy)-2-hydroxypropyl]trimethyl-ammonium chloride]
Tumor weight [1, 6]: 0.2 g
Body weight [1, 6]: 23.8 g
Total weight [1, 7]: 24.0 g
Tumor weight ([1]; 1.0 mg/kg s.c., day 30): 2.1 g
Body weight ([1]; 1.0 mg/kg s.c., day 30): 25.5 g
Total weight ([1]; 1.0 mg/kg s.c., day 30 after tumor transplantation): 27.6 g
Total weight [1, 8]: 23.1 g
Tumor weight [1, 8]: 0.2 g
Body weight [1, 8]: 22.9 g
Total weight ([1]; 2.0 mg/kg s.c., day 30): 25.8 g
Tumor weight ([1]; 2.0 mg/kg s.c., day 30): 1.8 g
Body weight ([1]; 2.0 mg/kg s.c., day 30): 24.0 g
Total weight [1, 9]: 23.8 g
Tumor weight [1, 9]: 0.2 g
Body weight [1, 9]: 23.6 g
Total weight ([1]; 4.0 mg/kg s.c., day 30): 29.6 g
Tumor weight ([1]; 4.0 mg/kg s.c., day 30): 1.2 g
Body weight ([1]; 4.0 mg/kg s.c., day 30): 28.4 g
Effect on body weight loss ([1]; 1-mg/kg, between day 17 and 30): sufficient to reverse body weight loss
Body weight gain ([1]; 4-mg/kg, between day 17 and 30): ~5 g
Reduction of tumor weight ([1]; 4-mg/kg, day 30): more than 50%
Tumor weight [2, 10]: 0.4 g
Body weight [2, 10]: 25.9 g
Total weight ([2]; 1.0 mg/kg s.c., day 12 after tumor transplantation (treatment start)): 26.3 g
Tumor weight ([2]; 1.0 mg/kg s.c., day 21): 2.2 g
Body weight ([2]; 1.0 mg/kg s.c., day 21): 23.1 g
Total weight ([2]; 1.0 mg/kg s.c., day 21 after tumor transplantation): 25.3 g
Total weight [2, 11]: 26.1 g
Tumor weight [2, 11]: 0.4 g
Body weight [2, 11]: 25.7 g
Total weight ([2]; 2.0 mg/kg s.c., day 21): 28.4 g
Tumor weight ([2]; 2.0 mg/kg s.c., day 21): 1.9 g
Body weight ([2]; 2.0 mg/kg s.c., day 21): 26.5 g
Total weight [2, 12]: 26.9 g
Tumor weight [2, 12]: 0.2 g
Body weight [2, 12]: 26.7 g
Total weight ([2]; 4.0 mg/kg s.c., day 21): 32.4 g
Tumor weight ([2]; 4.0 mg/kg s.c., day 21): 1.4 g
Body weight ([2]; 4.0 mg/kg s.c., day 21): 31.0 g
Effect on body weight loss ([2]; 1-mg/kg, between day 12 and 21): only partially prevented body weight loss
Body weight gain ([2]; 4-mg/kg, between day 12 and 21): 4.3 g
Reduction of tumor weight ([2]; 4-mg/kg, day 21): about 48%
Tumor weight [4, 6]: 0.2 g
Body weight [4, 6]: 26.3 g
Total weight [4, 7]: 26.5 g
Tumor weight ([4]; 1.0 mg/kg s.c., day 28): 1.6 g
Body weight ([4]; 1.0 mg/kg s.c., day 28): 27.7 g
Total weight ([4]; 1.0 mg/kg s.c., day 28 after tumor transplantation): 29.3 g
Total weight [4, 8]: 26.9 g
Tumor weight [4, 8]: 0.2 g
Body weight [4, 8]: 26.7 g
Total weight ([4]; 2.0 mg/kg s.c., day 28): 28.7 g
Tumor weight ([4]; 2.0 mg/kg s.c., day 28): 1.5 g
Body weight ([4]; 2.0 mg/kg s.c., day 28): 27.2 g
Total weight [4, 9]: 27.0 g
Tumor weight [4, 9]: 0.2 g
Body weight [4, 9]: 26.8 g
Total weight ([4]; 4.0 mg/kg s.c., day 28): 30.9 g
Tumor weight ([4]; 4.0 mg/kg s.c., day 28): 1.2 g
Body weight ([4]; 4.0 mg/kg s.c., day 28): 29.7 g
Effect on body weight loss ([4]; 1-mg/kg, between day 17 and 28): fully reversed body weight loss
Body weight gain ([4]; 4-mg/kg, between day 17 and 28): 3.1 g
Reduction of tumor weight ([4]; 4-mg/kg, day 28): about 40%
Tumor weight [5, 13]: 0.7 g
Body weight [5, 13]: 25.5 g
Total weight ([5]; 0.5 mg/kg s.c., day 18 after tumor transplantation (treatment start)): 26.2 g
Tumor weight ([5]; 0.5 mg/kg s.c., day 27): 2.8 g
Body weight ([5]; 0.5 mg/kg s.c., day 27): 24.0 g
Total weight ([5]; 0.5 mg/kg s.c., day 27 after tumor transplantation): 26.8 g
Total weight [5, 14]: 26.2 g
Tumor weight [5, 14]: 0.4 g
Body weight [5, 14]: 25.8 g
Total weight ([5]; 1.0 mg/kg s.c., day 27): 30.3 g
Tumor weight ([5]; 1.0 mg/kg s.c., day 27): 1.9 g
Body weight ([5]; 1.0 mg/kg s.c., day 27): 28.4 g
Total weight [5, 15]: 27.0 g
Tumor weight [5, 15]: 0.5 g
Body weight [5, 15]: 26.5 g
Total weight ([5]; 2.0 mg/kg s.c., day 27): 30.6 g
Tumor weight ([5]; 2.0 mg/kg s.c., day 27): 1.9 g
Body weight ([5]; 2.0 mg/kg s.c., day 27): 28.7 g
Effect on body weight loss ([5]; 0.5-mg/kg, between day 18 and 27): reduced body weight loss
Effect on body weight ([5]; 1-mg/kg, between day 18 and 27): gained weight
Effect on body weight ([5]; 2-mg/kg, between day 18 and 27): gained weight
Reduction of tumor weight ([5]; higher amounts of CCcompound1, day 27): about 45%

Reference: US20080114055A1, “Thioxanthone Compounds to Reverse Weight Loss” (ZOLTAN LABORATORIES LLC, priority 2006, published 2008)
